Converted amounts (≈) assume the structure as drawn. Marks after values point to notes of the source that are not given here.
Key:
[1] = tested on: Helicobacter pylori (Hp) ATCC43504; assay: In vitro anti-Helicobacter pylori effect, minimum inhibitory concentration (filter paper on Columbia Blood Agar Plate); type: cell-based; details: Helicobacter pylori ATCC43504, 37° C. micro-aerobic, 72 hours
[2] = tested on: Candida albicans (98001); assay: Selective inhibitory effect, in vitro MIC (broth dilution, turbidity); type: cell-based; details: 48 h, read-out: In vitro Minimum Inhibitory Concentration MIC
From the text: (§1) Strains: Lactobacillus acidophilus, E. coli, Staphylococcus epidermidis, yeast, thermophilic Bifidobacterium, Staphylococcus aureus (26112), Alpha-Hemolytic Streptococcus (32209), Shigella (32013), Streptococcus pneumoniae (31001), Catarrhal, Corynebacterium diphtheriae (38101), Escherichia coli (44113), Pseudomonas aeruginosa (10211), Salmonella Typhi and Candida albicans (98001), Catarrhal is isolated from specimen collected from the throat in the bacterial laboratory, Candida albicans is donated by Guangzhou Institute for Food and Drug Control, all other strains are provided by Beijing Institute for Food and Drug Control; Trichophyton gypseum (4097), Trichophyton cerebriforme, Trichophyton tonsurans, Microsporum gypseum, Microsporum lanosum, Epidermophyton floccosum (previously known as Trichophyton floccosum) and Trichophyton rubrum are donated by Shanghai Huashan Hospital.
(§2) 3. Culture medium: nutrient broth, 1% dextrose broth, 1% serum broth, Sabouraud agar plate, prepared by conventional preparation method.
(§3) Drug preparation: Use nutrient broth to prepare a series of 14 drug solution in which the content of drug per ml are, 0.1 g, 0.05 g, 0.025 g . . . 1.22×10^−5 g respectively and the total volume of each test tube is 1 ml, and sterile by steam sterilization. […]

[3] = tested on: Epidermophyton floccosum; assay: Selective inhibitory effect, in vitro MIC; type: cell-based; details: read-out: In vitro Minimum Inhibitory Concentration MIC
From the text: as §1, §2
(§4) Drug preparation: Use nutrient broth to prepare a series of 14 drug solution in which the content of drug per ml are, 0.1 g, 0.05 g, 0.025 g . . . 1.22×10^−5 g respectively and the total volume of each test tube is 1 ml, and sterile by steam sterilization. For Streptococcus testing, 1% glucose is added to the sterile drug solution, for Streptococcus pneumoniae and Corynebacterium diphtheria, 10% inactivated rabbit serum is added, and for Candida albicans, the drug solution is prepared by using Sabouraud broth.
(§5) Control: for strain control, testing bacteria is added to non-drug culture media; for drug control, no bacteria is added to the drug solution.
(§6) For each drug solution at different concentration and for bacteria control, add 1 ml of 1:2000 testing bacteria solution (8 hours cultured substance) to each tube, incubate bacteria culture at 37° C. for 18 hours and observe the results. For Candida albicans, 24 hours cultured substance is used, and incubate bacteria culture at 28° C. for 48 hours after bacteria is added to the drug solution and then observe the results. Turbidity is the indicator and visually observe each tube to determine if there is any bacterial growth.
(§7) Determine minimum inhibitory concentration (MIC): MIC is the lowest concentration of an antimicrobial that will inhibit the visible growth of a microorganism.

[4] = tested on: Microsporum gypseum; assay: Selective inhibitory effect, in vitro MIC; type: cell-based; details: Nannizzia gypsea, read-out: In vitro Minimum Inhibitory Concentration MIC
From the text: as §1, §2, §4, §5, §6, §7

[5] = tested on: Microsporum lanosum; assay: Selective inhibitory effect, in vitro MIC; type: cell-based; details: read-out: In vitro Minimum Inhibitory Concentration MIC
From the text: as §1, §2, §4, §5, §6, §7

[6] = tested on: Trichophyton cerebriforme; assay: Selective inhibitory effect, in vitro MIC; type: cell-based; details: read-out: In vitro Minimum Inhibitory Concentration MIC
From the text: as §1, §2, §4, §5, §6, §7

[7] = tested on: Trichophyton gypseum (4097); assay: Selective inhibitory effect, in vitro MIC; type: cell-based; details: Nannizzia gypsea, read-out: In vitro Minimum Inhibitory Concentration MIC
From the text: as §1, §2, §4, §5, §6, §7

[8] = tested on: Trichophyton rubrum; assay: Selective inhibitory effect, in vitro MIC; type: cell-based; details: read-out: In vitro Minimum Inhibitory Concentration MIC
From the text: as §1, §2, §4, §5, §6, §7

[9] = tested on: Trichophyton tonsurans; assay: Selective inhibitory effect, in vitro MIC; type: cell-based; details: read-out: In vitro Minimum Inhibitory Concentration MIC
From the text: as §1, §2, §4, §5, §6, §7

[10] = tested on: Helicobacter pylori; assay: In vivo anti-Helicobacter pylori effect, Hp infection model, rapid urease test of pyloric antrum tissue; design: species or system BALB/c mice; details: 1 time per day for 8 weeks
Experimental: (§8) Take SPF (specific pathogen free) BALB/c mice, equal numbers of male and female, each weight 18˜20 g; divide randomly into three groups, which are normal control group, model control group and triple therapy group. Give the corresponding experimental drugs according to table 1 below. Hp infection model is prepared by using antibiotics and oral gavage of Hp. Day 1, oral gavage 0.5 ml/mouse antibiotics mixture (0.25 ml ampicillin (20 mg/ml), 0.15 ml gentamicin (4 mg/ml), 0.1 ml azithromycin (50 mg/ml)) for three consecutive days for all testing animals, use equal volume of physiological saline for normal control group; starting from day 4, water fasting for 12 hours, oral gavage freshly prepared Hp suspended solution (0.5 ml/mouse/day, concentration 10^8 CFU/ml) for seven consecutive days, use equal volume of physiological saline for normal control group. Starting from day 11, oral gavage testing drug to the testing animals (use equal volume of physiological saline for normal control group), 1 time per day for 8 consecutive weeks. After the last drug administration, fasting for 24 hours. Take serum sample by orbital bleeding and centrifugation. Test for Helicobacter pylori urease antibody (according to the instruction of the instrument); sacrifice mice, tissue from pyloric antrum is first taken for rapid urease test and then observe for 3 minutes, and determine the test results in which strong positive refers to color change at peripheral portion from yellow to red within 1 minute, weak positive refers to color change within 3 minutes, and negative refers to no color change; the remaining stomach tissue is fixed in 10% formalin, then embed and cutting for carbol-fuchsin test, observe the Hp infection condition of the gastric mucosa and determine the condition.

[11] = tested on: Helicobacter pylori; assay: In vivo anti-Helicobacter pylori effect, Hp infection model, serum urease antibody to Helicobacter pylori; design: species or system BALB/c mice; details: 1 time per day for 8 weeks
Experimental: as §8

[12] = tested on: Helicobacter pylori; assay: In vivo anti-Helicobacter pylori effect, Hp infection model, carbol-fuchsin staining of stomach tissue; design: species or system BALB/c mice
Experimental: as §8
Histopathological findings: after staining stomach tissue by carbol-fuchsin method, the Hp become […] in color, have a curved or rod shape, and mainly locate in gastric pit surface and mucus.

[13] = tested on: Streptococcus pneumoniae (31001); assay: Selective inhibitory effect, in vitro MIC (broth dilution, turbidity); type: cell-based; details: 10% inactivated rabbit serum added, 37° C., 18 hours, read-out: In vitro Minimum Inhibitory Concentration MIC
From the text: as §1, §2, §3

[14] = in vivo; details: orogastric gavage; for LD50 at 14 days: both, KM, mouse, in vivo, po, Bliss method
Experimental: (§9) 1.3 Testing animal: KM mice, SPF grade, weight 18-22 g, equal numbers of male and female, obtained from Animal Laboratory Center of Guangzhou University of Chinese Medicine, Certificate number: SCXK (Yue) 2008-0020.
(§10) 2.1 Preparation of drug solution: weight a predetermined quantity of patchouli alcohol and put it into a beaker, add suitable amount of peanut oil into the beaker as solvent, mix while heating until the patchouli alcohol is dissolved. Cool under room condition and then add peanut oil to the predetermined amount to obtain the patchouli alcohol solution.
(§11) 2.2 Animal grouping: Take 200 mice, weight between 18˜22 g, divided by weight and randomly divided into 4 groups, namely: orogastric gavage drug group, orogastric gavage control group (equal volume of peanut oil is used), intraperitoneal injection drug group, Intraperitoneal injection control group (equal volume of peanut oil is used), each group includes 50 mice, equal numbers of male and female, raise for one week before experiment for the mice to adapt to the environment, water fasting for 24 hours before experiment.
Set the initial dose at 7.90 g/kg, at a ratio of 1:0.75 divide 5 groups, each group includes 10 mice, equal numbers of male and female, give patchouli alcohol solution to mice once by orogastric gavage according to the dosage at 2.5 g/kg, 3.33 g/kg, 4.44 g/kg, 5.93 g/kg, 7.90 g/kg for each group. Observe consecutively for 14 days, record toxicity reaction and lethal rate every day, and calculate the medium lethal dose (LD50) by Bliss method.

[15] = in vivo; details: for LD50 at 14 days: both, KM, mouse, in vivo, Bliss method
Experimental: as §9, §10, §11
Set the initial dose at 6.32 g/kg, at a ratio of 1:0.75 divide 5 groups, each group includes 10 mice, equal numbers of male and female, give patchouli alcohol solution to each of the mice once by intraperitoneal injection according to the dosage at 2.0 g/kg, 2.67 g/kg, 3.56 g/kg, 4.70 g/kg, 6.32 g/kg for each group. Observe consecutively for 14 days, record toxicity reaction and lethal rate every day, and calculate the medium lethal dose (LD50) by Bliss method.

[16] = cited from earlier work
[17] = High Dose 40 mg/kg oral gavage, 10 animals
[18] = Low Dose 10 mg/kg oral gavage, 11 animals
[19] = Medium Dose 20 mg/kg oral gavage, 11 animals
[20] = 10 mg/kg oral gavage, 11 animals
[21] = 20 mg/kg oral gavage, 11 animals
[22] = 40 mg/kg oral gavage, 10 animals
[23] = mice, intraperitoneal injection
[24] = mice, intraperitoneal injection, pre-test

CC1(C)S[C@@H]2[C@H](NC(=O)[C@H](N)c3ccc(O)cc3)C(=O)N2[C@H]1C(=O)O [Amoxicillin, reference compound]
MIC (minimum inhibitory concentration) [1]: 120 µg/mL (≈ 328 µM)

CC(=O)N1CCN(c2ccc(OCC3COC(Cn4ccnc4)(c4ccc(Cl)cc4Cl)O3)cc2)CC1 (stereo not drawn) [Ketoconazole]
MIC [2]: 12.2 mg/mL (≈ 23000 µM)
MIC [3]: 383 µg/mL (≈ 721 µM)
MIC [4]: 383 µg/mL (≈ 721 µM)
MIC [5]: 24.5 mg/mL (≈ 46100 µM)
MIC [6]: 383 µg/mL (≈ 721 µM)
MIC [7]: 383 µg/mL (≈ 721 µM)
MIC [8]: 24.4 mg/mL (≈ 45900 µM)
MIC [9]: 49 mg/mL (≈ 92200 µM)

C[C@H]1CC[C@@]2(O)C(C)(C)[C@@H]3CC[C@@]2(C)[C@H]1C3 [Patchouli Alcohol, (1R,4S,4aS,6R,8aS)-4,a,9,9-tetramethyloctahydro-1,6-methanonaphthalen-1(2H)-ol]
MIC (minimum inhibitory concentration) [1]: 78 µg/mL (≈ 351 µM)
Strong positive (count) [10, 17]: 2 count
Total Positive Rate (%) [10, 17]: 40.00%
Weak positive (count) [10, 17]: 2 count
Strong positive (count) [10, 18]: 0 count
Total Positive Rate (%) [10, 18]: 36.36%
Weak positive (count) [10, 18]: 4 count
Strong positive (count) [10, 19]: 0 count
Total Positive Rate (%) [10, 19]: 27.27* %
Weak positive (count) [10, 19]: 3 count
Positive (Count) [11, 20]: 0 Count
Positive rate (%) [11, 20]: 0.00** %
Positive (Count) [11, 21]: 0 Count
Positive rate (%) [11, 21]: 0.00** %
Positive (Count) [11, 22]: 0 Count
Positive rate (%) [11, 22]: 0.00** %
animals with blue Hp found in the gastric pit (positive/total) ([12]; high dose group): 6/11
infection rate ([12]; high dose group): 60%
animals with blue Hp found in the gastric pit and the mucosal surface (positive/total) ([12]; low dose group): 9/11
infection rate ([12]; low dose group): 81.81%
animals with blue Hp found in the gastric pit (positive/total) ([12]; medium dose group): 7/11
infection rate ([12]; medium dose group): 63.63%
MIC [13]: 510 µg/mL (≈ 2290 µM)
LD50 at 14 days ([14]; LD50 95% confidence interval lower limit, mice): 4040 mg/kg
LD50 at 14 days ([14]; LD50 95% confidence interval upper limit, mice): 5500 mg/kg
LD50 at 14 days ([14]; LD50, mice, peanut oil solution): 4690 mg/kg
autopsy of the dead mice ([14]; mice): no obvious abnormality is found in major organs
time at which death usually occurs ([14]; mice): 6˜12 hours
maximum lethal dose ([14]; mice, pre-test): 7.9 g/kg
minimum lethal dose ([14]; mice, pre-test): 2.5 g/kg
LD50 at 14 days ([15]; LD50, mice, intraperitoneal acute toxicity (sentence prints orogastric gavage), peanut oil solution): 3140 mg/kg
LD50 at 14 days ([15]; ip, LD50 95% confidence interval lower limit, mice, intraperitoneal acute toxicity): 2660 mg/kg
LD50 at 14 days ([15]; ip, LD50 95% confidence interval upper limit, mice, intraperitoneal acute toxicity): 3680 mg/kg
autopsy of the dead mice [15, 23]: no obvious abnormality is found in major organs
time at which death usually occurs [15, 23]: 6˜12 hours
maximum lethal dose [15, 24]: 6.32 g/kg
minimum lethal dose [15, 24]: 2.0 g/kg
solubility in ethanol and ether and common organic solvent ([16]; ethanol, ether, common organic solvent): soluble
solubility in water ([16]; water): insoluble

From patent US20140031434A1, “Use of Patchouli Alcohol in Preparation of Drug Against Helicobacter Pylori” (priority 2011, published 2014)
